Data from US11653689B2, “Probiotic Bifidobacterium breve strain and compositions comprising said strain” (Chr. Hansen A/S, priority 2018, dated 2023).

Assays:
cyclooxygenase (COX) = assay: Serum prostaglandin E2 and thromboxane B2 by LC-MS/MS in trial subjects; format: in vivo, human; conditions: fasting serum, visit 2 to 7, 300 mg aspirin daily
Method: As exploratory endpoints, post-hoc intervention effects on prostaglandin E2 (PGE2) and thromboxane B2 (TBX2) in serum samples downstream of cyclooxygenase (COX) were studied.
After unblinding, a post-hoc lab analysis was performed on 2 biolipids PGE2 and TXB2 downstream from the COX enzyme in fasting serum samples obtained during visit 2 to visit 7. […] J. Chromatogr. […] Ambiotis were kept blinded for intervention during analyses and analyses were performed in single measurements.

[1] = Co-incubation of DSM 32356 with acetylsalicylic acid, metabolite analysis
Method: The overall aim with this experiment was to explore if Bifidobacterium breve DSM 32356 influenced the degradation of aspirin in vitro.
To cover a wide concentration range of acetylsalicylic acid the following concentrations were used: 20, 10, 5, 2.5, 1.25, 0.625, 0.3125 and 0 mM of acetylsalicylic acid.
The next day the grown culture was reinoculated in fresh MRS with 0.05% CyHCl (100 μL bacteria suspension in 10 mL MRS with 0.05% CyHCl). Six dilution rows were generated by transferring 1 mL of mixed inoculated culture to 10 mL MRS with 0.05% CyHCl. This was repeated 5 times. The bifidobacteria were cultured anaerobically overnight at 37° C. On the day of incubation with acetylsalicyl acid bacterial growth was evaluated by measuring optical density at 600 nm (OD600 nm) and cultures representing late exponential/early stationary phase were selected. […]
Nine mL of each acetylsalicylic acid solution (22.2, 11.1, 5.6, 2.8, 1.39, 0.69 and 0.35 mM) and the control condition (0 mM) were added to different sterile tubes in duplicate. […] After incubation, pH was measured in each vial and the solutions were sterile filtered and frozen at −80° C. until metabolite analysis. […]

upper GI bleeding = conditions: in vivo; cited from earlier work
Caco-2 cell layer = conditions: cited from earlier work

In the case of CC(=O)Oc1ccccc1C(=O)O [acetylsalicylic acid (aspirin), acetylsalicylic acid], the “serum PGE2 concentrations” value (cyclooxygenase (COX)) is reported as “robust inhibition”, the “serum TXB2 concentrations” value (cyclooxygenase (COX)) is reported as “robust inhibition” and the “conversion of acetylsalicylic acid to salicylic acid” value ([1]; 24 hours, 37° C., with DSM 32356 or acid-adjusted to pH 4.5, MRS) is reported as “most of the acetylsalicylic acid was converted to salicylic acid”. For the same compound, the “growth of DSM 32356” value ([1]; increasing concentrations of aspirin) was “inhibited bacterial growth”, the “increased risk of upper GI bleeding” value (upper GI bleeding) was 2- to 4 fold and the ZO-1 expression (Caco-2 cell layer) was “decreased”. The “flux of fluorescein isothiocyanate-conjugated dextran” value (Caco-2 cell layer) was “increases flux” and the “transepithelial electrical resistance (TEER)” value (Caco-2 cell layer) was “decreased”.
